Assay results from US20190175728A1, “NUCLEIC ACID-ANTIGEN PEPTIDE CONJUGATE” (NAPAJEN PHARMA, INC., priority 2017, published 2019).
No end group written: not given here.

Key:
[1] = test system: macrophages recovered from the peritoneal cavity; test: Antigen presenting ability of dA40(S)-peptide conjugates, fluorescence microscopy after anti-OVA257-264/H-2Kb PE staining; assay type: cell-based, C57BL/6J mice; details: conjugate 10 μM, 18 hours, 1.5×10^5 cells/well
Description: (§1) 3 ml of thioglycollate medium was administered to the peritoneal cavity of C57BL/6J mice 3 days later, macrophages were recovered from the peritoneal cavity. The resulting macrophages were seeded in 48 wells (1.5×10^5 cells/well), and further each of the dA40(S)-peptide conjugates was added to the wells at a concentration of 10 μM. […], the fixed cells were stained with Anti-Mouse OVA257-264 (SIINFEKL) peptide bound to H-2Kb PE, and the resulting cells were subjected to fluorescence microscopic observation.
In FIG. 3, pep(C)-dA40(S) represents a dA40(S)-peptide conjugate obtained by using peptide 1, dA40(S)-(C)pep represents a dA40(S)-peptide conjugate obtained by using peptide 2, dA40(S)-(C)pep long represents a dA40(S)-peptide conjugate obtained by using peptide 3, and dA40(S)-(C)pep long miss (L→K) represents a dA40(S)-peptide conjugate obtained by using peptide 4.

[2] = target: T1, murine endoplasmic reticulum aminopeptidase (Mus musculus, UniProt Q9EQH2); test: Cleavage of dA40(S)-peptide conjugate by endoplasmic reticulum aminopeptidase (polyacrylamide gel electrophoresis); assay type: biochemical; details: conjugate 1.5 μM, aminopeptidase 0.5 μg/ml, 25 mM Tris buffer pH 8.0, 37° C., 18 hours
T1 construct: purchased R & D Systems 2500-ZN
T1 sequence (Q9EQH2 1-930): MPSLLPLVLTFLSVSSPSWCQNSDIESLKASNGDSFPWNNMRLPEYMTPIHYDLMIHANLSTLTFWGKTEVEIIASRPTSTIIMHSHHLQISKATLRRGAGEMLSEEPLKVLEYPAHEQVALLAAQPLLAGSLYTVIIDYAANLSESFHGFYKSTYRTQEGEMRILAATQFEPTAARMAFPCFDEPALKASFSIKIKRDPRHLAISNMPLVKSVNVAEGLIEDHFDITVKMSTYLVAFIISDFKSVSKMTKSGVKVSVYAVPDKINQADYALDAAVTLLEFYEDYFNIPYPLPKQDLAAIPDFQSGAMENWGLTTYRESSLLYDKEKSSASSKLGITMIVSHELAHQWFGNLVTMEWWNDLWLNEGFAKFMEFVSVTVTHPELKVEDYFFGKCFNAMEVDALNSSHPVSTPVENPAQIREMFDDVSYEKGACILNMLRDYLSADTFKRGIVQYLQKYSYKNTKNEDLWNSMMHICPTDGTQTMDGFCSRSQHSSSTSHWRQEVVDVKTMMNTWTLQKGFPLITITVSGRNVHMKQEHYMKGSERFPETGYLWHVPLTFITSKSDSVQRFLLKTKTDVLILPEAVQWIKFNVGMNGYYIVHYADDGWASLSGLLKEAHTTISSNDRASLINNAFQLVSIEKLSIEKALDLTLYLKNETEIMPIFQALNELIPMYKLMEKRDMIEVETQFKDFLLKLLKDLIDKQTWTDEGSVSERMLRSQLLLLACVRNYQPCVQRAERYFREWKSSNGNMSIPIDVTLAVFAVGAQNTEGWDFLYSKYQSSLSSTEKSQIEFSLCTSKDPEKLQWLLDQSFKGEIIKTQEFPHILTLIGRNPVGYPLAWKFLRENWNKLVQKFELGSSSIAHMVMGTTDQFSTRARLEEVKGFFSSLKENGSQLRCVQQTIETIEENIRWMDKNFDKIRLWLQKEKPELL
Description: Each of the dA40(S)-peptide conjugates (1.5 μM) and murine endoplasmic reticulum aminopeptidase (0.5 μg/ml) (R & D Systems catalog Number 2500-ZN) were added to a 25 mM Tris buffer (pH 8.0) and the mixture was incubated at 37° C. for 18 hours. After completion of the reaction, polyacrylamide gel electrophoresis was carried out to observe the state of release from the dA40(S)-peptide conjugate.
In FIG. 2, pep(C)-dA40(S) represents a dA40(S)-peptide conjugate obtained by using peptide 1, dA40(S)-(C)pep represents a dA40(S)-peptide conjugate obtained by using peptide 2, dA40(S)-(C)pep long represents a dA40(S)-peptide conjugate obtained by using peptide 3, and dA40(S)-(C)pep long miss (L→K) represents a dA40(S)-peptide conjugate obtained by using peptide 4. […] Aminopeptidase is one of the enzymes that trim antigen peptides to present the antigen peptides to MHC. Accordingly, it is important for antigen presentation using the dA40(S)-peptide conjugate that even in the case of the peptide in which polydeoxyadenine is bonded to the N-terminal cysteine, the C-terminal side is composed of the hydrophobic amino acid residue. This fact was confirmed.

[3] = test system: OVA257-264 presenting cells (CFSE^high spleen cells); test: In vivo CTL assay; design: species or system C57BL/6J mice; details: target cells given day 7, counted after 24 hours
Description: SPG/dA40(S)-OVA257-264 (20, 100, 500 ng in the amount of OVA257-264) and CpG-dA40(S)/SPG (30 μg in the amount of CpG-dA) were intradermally administered to C57BL/6J mice.
On day 7 of administration, spleen cells were provided according to the following procedure. Spleen cells excised from normal C57BL/6J mice were treated with 10 μg/ml of OVA257-264 at 37° C. for 90 minutes. Thereafter, the spleen cells were washed three times with PBS, and the spleen cells were labeled with 5 μM carboxyfluorescein succinimidyl ester (CFSE); Invitrogen, Carlsbad, Calif.). Further, spleen cells not treated with OVA257-264 were similarly labeled with CFSE (0.5 μM). The labeled cells were washed three times with PBS. The spleen cells treated with OVA257-264 (CFSE^high) and the spleen cells not treated with OVA257-264 (CFSE^low) were mixed so that the number of the treated spleen cells was equal to the number of the untreated spleen cells. […] After that, the spleen cells were removed from the mice, and the CFSE-labeled cells were counted by flow cytometry.
OVA257-264 presenting cells were not observed when the dose of OVA257-264 was 100 ng/head or more. […] The difference in ability of inducing CTL reaction between SPG/dA40(S)-OVA257-264 and OVA257-264-click-dA40(S)/SPG was consistent with the result of Example 5 in which the antigen presenting ability was evaluated.

[4] = test system: macrophages recovered from the peritoneal cavity; test: Antigen presenting ability of SPG/dA40(S)-OVA257-264, flow cytometry after anti-OVA257-264/H-2Kb PE staining; assay type: cell-based, C57BL/6J mice; details: concentration of OVA257-264 5 μg/ml, 18 hours
Description: as §1, with “SPG/dA40(S)-OVA257-264, dA40(S)-OVA257-264, or OVA257-264-click-dA40(S)/SPG” for “each of the dA40(S)-peptide conjugates”, “added” for “added to the wells”, “OVA257-264 of 5 μg/ml.” for “10 μM.”, “analyzed by flow cytometry.” for “subjected to fluorescence microscopic observation.”

[5] = target: T2, dA40(S)-peptide conjugate obtained by using peptide 1
T2 chain: SIINFEKLC

[6] = target: T3, dA40(S)-peptide conjugate obtained by using peptide 2
T3 chain: CSIINFEKL

[7] = target: T4, dA40(S)-peptide conjugate obtained by using peptide 3
T4 chain: CQLESIINFEKL

pep(C)-dA40(S): dA40(S) disulfide-bonded via LC-SPDP linker to C-terminal cysteine of peptide 1, SIINFEKLC (SEQ ID NO: 1) (cyclised or stapled)
fluorescence of OVA257-264 (SIINFEKL) bound to H-2Kb (antigen presentation) [1]: Very weak fluorescence
state of release from the dA40(S)-peptide conjugate after enzyme treatment [2]: no change was observed in the electrophoretic distance

SPG/dA40(S)-OVA257-264: complex of dA40(S)-OVA257-264 and schizophyllan (SPG) (SIINFEKL; also: dA40(S) conjugate, site not given here, complex with schizophyllan (SPG); UniProt P01012 258-265, looked up, fragment)
decrease in OVA257-264 presenting cells (CFSE^high spleen cells) ([3]; intradermal, 20, 100, 500 ng OVA257-264, together with CpG-dA40(S)/SPG 30 μg): observed depending on the dose of OVA257-264
dose of OVA257-264 at which OVA257-264 presenting cells were not observed ([3]; intradermal, together with CpG-dA40(S)/SPG 30 μg): ≥ 100 ng/head

dA40(S)-OVA257-264: conjugate of dA40(S) and ovalbumin antigen peptide OVA257-264 (SIINFEKL), prepared in the manner described in Example 1 (also: dA40(S) conjugate, site not given here; UniProt P01012 258-265, looked up, fragment)
antigen (OVA257-264) presentation level [4]: the same as that of SPG/dA40(S)-OVA257-264

dA40(S)-(C)pep long miss (L→K): dA40(S) disulfide-bonded via LC-SPDP linker to N-terminal cysteine of peptide 4, CSIINFEKK (SEQ ID NO: 4) (cyclised or stapled)
fluorescence of OVA257-264 (SIINFEKL) bound to H-2Kb (antigen presentation) [1]: antigen presentation hardly occurred
state of release from the dA40(S)-peptide conjugate after enzyme treatment [2]: not recognized by the enzyme

B1: murine endoplasmic reticulum aminopeptidase (R & D Systems catalog Number 2500-ZN) (protein)
chain: DIESLKASNGDSFPWNNMRLPEYMTPIHYDLMIHANLSTLTFWGKTEVEIIASRPTSTIIMHSHHLQISKATLRRGAGEMLSEEPLKVLEYPAHEQVALLAAQPLLAGSLYTVIIDYAANLSESFHGFYKSTYRTQEGEMRILAATQFEPTAARMAFPCFDEPALKASFSIKIKRDPRHLAISNMPLVKSVNVAEGLIEDHFDITVKMSTYLVAFIISDFKSVSKMTKSGVKVSVYAVPDKINQADYALDAAVTLLEFYEDYFNIPYPLPKQDLAAIPDFQSGAMENWGLTTYRESSLLYDKEKSSASSKLGITMIVSHELAHQWFGNLVTMEWWNDLWLNEGFAKFMEFVSVTVTHPELKVEDYFFGKCFNAMEVDALNSSHPVSTPVENPAQIREMFDDVSYEKGACILNMLRDYLSADTFKRGIVQYLQKYSYKNTKNEDLWNSMMHICPTDGTQTMDGFCSRSQHSSSTSHWRQEVVDVKTMMNTWTLQKGFPLITITVSGRNVHMKQEHYMKGSERFPETGYLWHVPLTFITSKSDSVQRFLLKTKTDVLILPEAVQWIKFNVGMNGYYIVHYADDGWASLSGLLKEAHTTISSNDRASLINNAFQLVSIEKLSIEKALDLTLYLKNETEIMPIFQALNELIPMYKLMEKRDMIEVETQFKDFLLKLLKDLIDKQTWTDEGSVSERMLRSQLLLLACVRNYQPCVQRAERYFREWKSSNGNMSIPIDVTLAVFAVGAQNTEGWDFLYSKYQSSLSSTEKSQIEFSLCTSKDPEKLQWLLDQSFKGEIIKTQEFPHILTLIGRNPVGYPLAWKFLRENWNKLVQKFELGSSSIAHMVMGTTDQFSTRARLEEVKGFFSSLKENGSQLRCVQQTIETIEENIRWMDKNFDKIRLWLQKEKPELL
release of dA40(S) from the conjugate, polyacrylamide gel electrophoresis after enzyme treatment [5]: no change was observed in the electrophoretic distance even when subjected to enzyme treatment
release of dA40(S) from the conjugate, polyacrylamide gel electrophoresis after enzyme treatment [6]: a band of dA40(S) was slightly observed after the enzyme treatment
release of dA40(S) from the conjugate, polyacrylamide gel electrophoresis after enzyme treatment [7]: the peptide was almost completely released and a band of dA40(S) was observed
